Measurements: ChEMBL document CHEMBL1131816, “Novel quinolizidine salicylamide influenza fusion inhibitors” (Bioorg Med Chem Lett, 1999)
Values after ≈ are worked out from the molar mass of the structure shown.

What was measured:
Influenza A virus = test: Cytotoxicity against A/WSN/33 strain (an H1N1 subtype) influenza virus in the plaque reduction assay; format: functional
[1] = Inhibitory activity against A/WSN/33 strain (an H1N1 subtype) influenza virus was measured by cell protection assay in MDBK cells; format: functional, cell-based, Bos taurus
[2] = Inhibitory activity against A/WSN/33 strain (an H1N1 subtype) influenza virus was measured by cell protection assay in MDBK cells; Not active; format: functional, cell-based, Bos taurus
[3] = Inhibitory activity against A/WSN/33 strain (an H1N1 subtype) influenza virus was measured by cell protection assay in MDBK cells; Value ranges from 0.2-0.3 ug/mL; format: functional, cell-based, Bos taurus

SMILES	CC50 (Influenza A virus) [µg/mL]	EC50 [1] [µg/mL]	EC50 [2]	EC50 [3] [µg/mL]
C[C@@H]1CCC[C@@H]2C[C@@H](NC(=O)c3ccccc3N)CCN21	> 100	5 (≈ 17.4 µM)		
C[C@@H]1CCC[C@@H]2C[C@@H](NC(=O)c3cc(C(C)(C)C)ccc3O)CCN21	50 (≈ 145 µM)		Not Active	
C[C@@H]1CCC[C@@H]2C[C@@H](NC(=O)c3ccccc3O)CCN21	> 100	1.6 (≈ 5.55 µM)		
C[C@@H]1CCC[C@@H]2C[C@@H](NC(=O)c3ccc(N)c(Cl)c3)CCN21			Not Active	
C[C@@H]1CCC[C@@H]2C[C@@H](NC(=O)c3cc(Br)ccc3O)CCN21	> 100	0.8 (≈ 2.18 µM)		
C[C@@H]1CCC[C@@H]2C[C@@H](NC(=O)c3c(O)ccc4ccccc34)CCN21	> 100		Not Active	
Cc1ccc(C(=O)N[C@H]2CCN3[C@H](CCC[C@H]3C)C2)c(O)c1	> 100	4 (≈ 13.2 µM)		
COc1ccc(O)c(C(=O)N[C@H]2CCN3[C@H](CCC[C@H]3C)C2)c1	100 (≈ 314 µM)	0.6 (≈ 1.88 µM)		
C[C@@H]1CCC[C@@H]2C[C@@H](NC(=O)c3cc(I)ccc3O)CCN21	100 (≈ 241 µM)	1 (≈ 2.41 µM)		
C[C@@H]1CCC[C@@H]2C[C@@H](NC(=O)c3cc4c(cc3O)C(C)(C)CCC4(C)C)CCN21	8 (≈ 20.1 µM)		Not Active	
C[C@@H]1CCC[C@@H]2C[C@@H](NC(=O)c3cc(Cl)ccc3O)CCN21	> 100	0.8 (≈ 2.48 µM)		
C[C@@H]1CCC[C@@H]2C[C@@H](NC(=O)c3cc(N=[N+]=[N-])ccc3O)CCN21	> 100	0.5 (≈ 1.52 µM)		
C[C@@H]1CCC[C@@H]2C[C@@H](NC(=O)c3cc(F)ccc3O)CCN21	> 100	0.4 (≈ 1.31 µM)		
C[C@@H]1CCC[C@@H]2C[C@@H](NC(=O)c3cc4ccccc4cc3O)CCN21	> 100		Not Active	
C[C@@H]1CCC[C@@H]2C[C@@H](NC(=O)c3cccc(O)c3O)CCN21	10 (≈ 32.9 µM)		Not Active	
C[C@@H]1CCC[C@@H]2C[C@@H](NC(=O)c3cc(Cl)cc(Cl)c3O)CCN21	> 100	10 (≈ 28 µM)		
C[C@@H]1CCC[C@@H]2C[C@@H](NC(=O)c3cc(C(=O)c4ccccc4)ccc3O)CCN21	> 100		Not Active	
C[C@@H]1CCC[C@@H]2C[C@@H](NC(=O)c3cc(C(F)(F)F)ccc3O)CCN21	> 100		Not Active	
C[C@@H]1CCC[C@@H]2C[C@@H](NC(=O)c3cc(Cl)c(N)cc3O)CCN21	> 100	1 (≈ 2.96 µM)		
COc1cc(N)c(Cl)cc1C(=O)N[C@H]1CCN2[C@H](CCC[C@H]2C)C1	> 100		Not Active	
C=Cc1ccc(O)c(C(=O)N[C@H]2CCN3[C@H](CCC[C@H]3C)C2)c1	> 100	2 (≈ 6.36 µM)		
Cc1cccc(C(=O)N[C@H]2CCN3[C@H](CCC[C@H]3C)C2)c1O	> 100	8 (≈ 26.5 µM)		
C[C@@H]1CCC[C@@H]2C[C@@H](NC(=O)c3c(O)cccc3F)CCN21	> 100	10 (≈ 32.6 µM)		
C[C@@H]1CCC[C@@H]2C[C@@H](NC(=O)c3cc(-c4ccccc4)ccc3O)CCN21	30 (≈ 82.3 µM)		Not Active	
CC(=O)Nc1ccccc1C(=O)N[C@H]1CCN2[C@H](CCC[C@H]2C)C1	> 100		Not Active	
C[C@@H]1CCC[C@@H]2C[C@@H](NC(=O)c3cc(Cl)c(N=[N+]=[N-])cc3O)CCN21			Not Active	
Cc1ccc(O)c(C(=O)N[C@H]2CCN3[C@H](CCC[C@H]3C)C2)c1	100 (≈ 331 µM)			0.2 (≈ 0.661 µM)
C[C@@H]1CCC[C@@H]2C[C@@H](NC(=O)c3ccc(N)cc3O)CCN21	> 100		Not Active	
C[C@@H]1CCC[C@@H]2C[C@@H](NC(=O)c3cc(O)ccc3O)CCN21	50 (≈ 164 µM)		Not Active	
